Measurements: article PMC2678990, “Stilbene glycosides are natural product inhibitors of FGF-2-induced angiogenesis” (BMC Cell Biology, 2009)

Key:
HDMEC [1] = assay: Toxicity: MTT and active caspase-3 assays; type: cell-based, human; conditions: HDMEC; MTT 72 h and active caspase-3 24 h; staurosporine positive control
Protocol: (§1) Stilbene glycoside toxicity was determined using the MTT and active caspase-3 assays. BAECs or HDMECs (7.5 × 10^3) were seeded in a 96 well plate and incubated for 4 h to allow cell adhesion. The test compound or staurosporine (1 μM), an inducer of active caspase-3 and therefore of apoptosis was added to the wells. Control cells were treated with PBS and the plate was incubated at room temperature for 72 hours. MTT reagent (10 μl) was added followed by incubation at room temperature for 2–4 h. When a purple precipitate was visible, detergent reagent (100 μl) was added to the plates and incubated at room temperature for 2 h in the dark. Absorbance was measured at 570 nm using a microplate reader.
In the apoptosis assay, HDMECs or BAEC (4 × 10^4/ml) in complete medium were added to the chambers slide and allowed to adhere for 24 h. The test compound (X μM) or staurosporine (1 μM) were added to all wells except control (PBS) and incubated for 24 hours. Wells treated with staurosporine were immediately washed (PBS) and fixed (4% paraformaldehyde) when cell morphology became round (2–4 h). After washing and fixing, cells were permeablized (0.1% Triton X-100; 10 min), washed (× 5~5 min each), air dried and blocked with 1% BSA in 1:50 TBS-Tween for 1 h at room temperature. Cells were incubated with goat anti-active caspase-3 (R&D system, UK; 1% BSA in TBS-Tween) for 1 h. […]

BAEC [2] = assay: Toxicity: MTT and active caspase-3 assays; type: cell-based, bovine; conditions: MTT 72 h and active caspase-3 24 h, staurosporine 1.0-1.4 μM positive control
Protocol: Figure 2 The effect of compounds 1 and 2 on BAEC viability. The cytotoxic effect was determined using (A) The MTT assay; cells (7.5 × 10^3) were incubated with the test compounds or with staurosporine (1.4 μM) an inducer of active caspase-3 and of apoptosis for 72 h and MTT added. The absorbance was read at 570 nm. (B) Active-caspase-3 apoptosis assay: cells (4.0 × 10^4/ml) were incubated with the test compounds or with staurosporine (1.0 μM, 24 h) and stained with anti-active caspase-3 as described below. Experiments were performed in triplicate. Representative immunofluorescence photomicrographs for BAEC were taken as described below. A group of apoptotic cells are highlighted in II.
as §1, with “reader. […]” for “reader.”

phospho-ERK1/2 in BAEC = assay: Western blot of ERK1/2 phosphorylation; type: cell-based, bovine; conditions: FGF-2 addition
Protocol: Figure 9 (A) Western blots of p-ERK-1 and -2 were performed on BAEC treated with compound 1 as described below. (B) The bar charts show relative protein expression compared to the control given an arbitrary value of 1.0. All experiments were performed at least twice and a representative example is shown. Lane 1 control, lane 2 FGF-2 (25 ng/ml), lane 3 compound 1 ([…]), lane 4 compound 1 (14.3 μM) + FGF-2, lane 5 compound 1 (28.6 μM), lane 6 compound 1 (28.6 μM) + FGF-2.
The method is described in detail elsewhere. In brief, cells were lysed in RIPA buffer, protein concentration determined using the Biorad assay, and approximately 20 μg aliquots separated by 12% SDS-PAGE, electroblotted onto nitrocellulose filters (Hoefer, San Francisco, Ca, USA), blocked overnight with 1% BSA in TBS-Tween and incubated for 4 h at RT with characterised antibodies to phosphor-ERK1/2 (AutogenBioclear, mouse monoclonal, 1:1000). α-Actin (Sigma, UK; 1:1000) was used as a loading control. Filters were washed in TBS-Tween and stained with antibodies to peroxidase-conjugated secondary antibody. Proteins were detected with the ECL system (Amersham, UK). Protein expression was estimated spectrophotometrically from band intensity. Results are semi-quantitative and given a numerical value compared to the weakest observed band assigned an arbitrary value of 1.0. […]

HDMEC [3] = assay: FGF-2 invasion in Matrigel; type: cell-based, human; conditions: FGF-2 treated
BAEC [4] = assay: FGF-2-induced tube formation in Matrigel; type: cell-based, bovine; conditions: FGF-2 25 ng/ml
Protocol: (§2) Cells (1.0 × 10^6/ml) were mixed with an equal volume of Matrigel (Becton -Dickinson, Oxford, UK; prepared according to the supplier's instructions) at 4°C. Aliquots (80 μl) were added to the wells of a 48-well plate and allowed to polymerise (1 h) then 500 μl of 15% FCS containing FGF-2 (25 ng/ml; or other growth factors), with or without test compounds was added. The cells were incubated for 24 h at 37°C then fixed in 4% paraformaldehyde (5 min), washed in cold ethanol and the plate air dried. Cells were stained with Geimsa (30 s), air dried and photographed. Ten random fields were selected and the number of closed tubes counted.

HDMEC [5] = assay: FGF-2-induced tube formation in Matrigel; type: cell-based, human; conditions: FGF-2 25 ng/ml
Protocol: as §2

[6] = test system: chick chorioallantoic membrane; assay: Chick chorioallantoic membrane (CAM) assay; type: in vivo; conditions: FGF-2 (25 ng) alone
Protocol: The angiogenic activity of test compounds was determined using the semi-quantitative chick chorioallantoic assay (CAM) as described previously. To expose the CAM a window was created in the shells of 4 day-old chicken eggs. […] […] This approach enabled calculation of an accumulated response in each group. To photograph the membrane, 2 cm^3 of a 50% emulsion of aqueous paraffin oil containing 2% Tween-80 was injected at the site of application and photographed using a Leitz dissecting microscope. Each experiment was performed five times and statistical significance was determined by the Mann-Whitney U test and the data is expressed as a median value (m).

BAEC [7] = assay: FGF-2 invasion in Matrigel; type: cell-based, bovine; conditions: FGF-2 treated
Protocol: The effect of the test compounds on cell invasion was investigated using a Transwell Boyden chamber system coated with reconstituted growth factor-depleted Matrigel. […] Representative photomicrographs for the effect of compound 1 are shown (Figure 7B).
Figure 7 The effect of compounds 1 (AI) and 2 (AII) on BAEC invasion into a Matrigel layer was studied using the chemoinvasion assay described below. Cells (1.7 × 10^4) were added to the Matrigel coated upper Boyden chamber and the compounds with or without FGF-2 added to the lower chamber. Cell invasion was measured after 24 h and assessed as described below. […] Results are the mean of three experiments. (B) Representative photomicrographs are shown for the effect of compound 1 on BAEC (original magnification × 20).
The procedure described above was repeated and wells having a uniform network of tubes were used to assess invasion into a second layer of Matrigel. Matrigel (100 μl), with and without the test compounds was added to the cells and allowed to polymerise (1 h at 37°C). FCS (15%) was added and the cells incubated for 24–72 h when tube growth into the upper layer was measured as described above.

human umbilical vein ECs = test system: human umbilical vein ECs; parameters: method as in PMID 11092574; conditions: cited from earlier work

Q: For CN[C@@H]1C[C@H]2O[C@@](C)([C@@H]1OC)n1c3ccccc3c3c4c(c5c6ccccc6n2c5c31)C(=O)NC4 [staurosporine, reference compound], which Cytotoxic effect (HDMEC [1]) is on record?
A: significant cytotoxicity

Q: What about the Cytotoxic effect (BAEC [2]) of the same compound?
A: significant cytotoxicity

Q: For “FGF-2: fibroblast growth factor-2, pro-angiogenic growth factor used as stimulus”, which “Increase in ERK1/2 phosphorylation compared to the control” value (phospho-ERK1/2 in BAEC) is on record?
A: 50%

Q: What about the “Increase in migration into a second layer of Matrigel” value (HDMEC [3]) of the same compound?
A: 3.0 fold

Q: What about the “Increase in differentiation into capillary-like structures” value (BAEC [4]) of the same compound?
A: approximately 4.0 fold

Q: And the “Increase in differentiation into capillary-like structures” value (HDMEC [5])?
A: approximately 4.0 fold

Q: And the “Degree of angiogenesis (m), median score” value [6]?
A: 3

Q: And the “Increase in migration into a second layer of Matrigel” value (BAEC [7])?
A: 3.2 fold

Q: Which “Concentrations inhibiting differentiation into capillary-like structures” value (human umbilical vein ECs) does the source give for Oc1ccc(/C=C/c2cc(O)cc(O)c2)cc1 [resveratrol] here?
A: 0.1 to 1 mM
